Results as given in patent publication US7507727B2, “Substituted quinobenzoxazine analogs and methods of using thereof” (Cylene Pharmaceuticals, Inc., priority 2003, dated 2009).

Target: c-Myc template DNA (c-myc quadruplex)
Test: Quadruplex binding / stop assay (Taq polymerase arrest, capillary electrophoresis)
Details: read-out: S DATA; Table 1D, stop assay data

Row | Compound | IC50
1 | C[N+]1([O-])CCC[C@@H]1CCNC(=O)c1cn2c3c(c(N4CCC(c5cnccn5)C4)c(F)cc3c1=O)Oc1cc3ccccc3cc1-2 (stereo partly shown) [compound 1766] | 6.3 µM
2 | O=C(NCCN1CCCC1)c1cn2c3c(c(SCCc4cnccn4)c(F)cc3c1=O)Oc1cc3ccccc3cc1-2 [compound 1767] | 3.2 µM
3 | CN1CCCC1CCNC(=O)c1cn2c3c(c(S(=O)(=O)CCc4cnccn4)c(F)cc3c1=O)Oc1cc3ccccc3cc1-2 (stereo not shown) [compound 1768] | 0.92 µM
4 | CN1CCCC1CCNC(=O)c1cn2c3c(c([S+]([O-])CCc4cnccn4)c(F)cc3c1=O)Oc1cc3ccccc3cc1-2 (stereo not shown) [compound 1769] | 10 µM
5 | CN1CCC[C@H]1CCNC(=O)c1cn2c3c(c(SCCc4cnccn4)c(F)cc3c1=O)Oc1cc3ccccc3cc1-2 [compound 1770] | 4.7 µM
6 | CN1CCCC1CCNC(=O)c1cn2c3c(c(N4CCC(c5ccccc5F)C4)c(F)cc3c1=O)Oc1cc3ccccc3cc1-2 (stereo not shown) [compound 1771] | 10 µM
7 | O=c1c2cn3c4ccccc4oc4c(N5CCC(c6cnccn6)C5)c(F)cc(c2nn1CCN1CCCC1)c43 (stereo not shown) [compound 1772] | 14.1 µM
8 | CN1CCCC1CCNC(=O)c1cn2c3c(c(N4CCC(c5cnccn5)C4)c(F)cc3c1=O)Oc1ccc(C(N)=O)cc1-2 (stereo not shown) [compound 1773] | 6.1 µM
9 | CN1CCCC1CCNC(=O)c1cn2c3c(c(SCCc4cnccn4)c(SCCc4cnccn4)cc3c1=O)Oc1cc3ccccc3cc1-2 (stereo not shown) [compound 1774] | 5.8 µM
10 | CCOC(=O)c1cn2c3c(c(N4CCC(c5cnccn5)C4)c(F)cc3c1=O)Oc1ccc(C#N)cc1-2 (stereo not shown) [compound 1775] | > 15 µM
11 | CN1CCCC1CCNC(=O)c1cn2c3c(c(N4CCC(c5cnccn5)C4)c(F)cc3c1=O)Oc1ccc(C#N)cc1-2 (stereo not shown) [compound 1776] | 6.8 µM
12 | CN1CCCC1CCNC(=O)c1cn2c3c(c(N4CCC(c5cnccn5)C4)c(F)cc3c1=O)Oc1ccc(C#N)cc1-2 (stereo not shown) [compound 1777] | 6.8 µM
13 | N#Cc1ccc2c(c1)-n1cc(C(=O)NCCN3CCCC3)c(=O)c3cc(F)c(N4CCC(c5cnccn5)C4)c(c31)O2 (stereo not shown) [compound 1778] | 2.9 µM
14 | CN1CCCC1CCNC(=O)c1cn2c3c(c(SCCc4cnccn4)c(F)cc3c1=O)Oc1ccccc1-2 (stereo not shown) [compound 1779] | > 15 µM
15 | CN1CCCC1CCNC(=O)c1cn2c3c(c(SCCc4cnccn4)c(F)cc3c1=O)Oc1c-2ccc2ccccc12 (stereo not shown) [compound 1780] | 5.2 µM
16 | CN1CCCC1CCNC(=O)c1cn2c3c(c(SCCc4ccccn4)c(F)cc3c1=O)Oc1cc3ccccc3cc1-2 (stereo not shown) [compound 1781] | 5.5 µM
17 | O=C(NCCN1CCCC1)c1cn2c3c(c(SCCc4cnccn4)c(F)cc3c1=O)Oc1ccc(Cl)cc1-2 [compound 1783] | > 15 µM
18 | O=C(NCCN1CCCC1)c1cn2c3c(c(SCCc4cnccn4)c(F)cc3c1=O)Oc1cc(Cl)ccc1-2 [compound 1784] | > 15 µM
19 | O=C(NCCN1CCCC1)c1cn2c3c(c(SCCc4cnccn4)c(F)cc3c1=O)Oc1ccccc1-2 [compound 1785] | > 15 µM
20 | O=C(NCCN1CCCC1)c1cn2c3c(c(SCCc4cnccn4)c(F)cc3c1=O)Oc1cccnc1-2 [compound 1786] | > 15 µM

Row | Compound | IC50
21 | CN1CCCC1CCNC(=O)c1cn2c3c(c(SCCc4cnccn4)c(F)cc3c1=O)Oc1ccc(Cl)cc1-2 (stereo not shown) [compound 1787] | > 15 µM
22 | O=C(NCCN1CCOCC1)c1cn2c3c(c(SCCc4cnccn4)c(F)cc3c1=O)Oc1cc(Cl)ccc1-2 [compound 1788] | > 15 µM
23 | O=C(NCCN1CCOCC1)c1cn2c3c(c(N4CCC(c5cnccn5)C4)c(F)cc3c1=O)Oc1ccc(Cl)cc1-2 (stereo not shown) [compound 1789] | > 15 µM
24 | O=C(NCCN1CCOCC1)c1cn2c3c(c(N4CCC(c5cnccn5)C4)c(F)cc3c1=O)Oc1cc(Cl)ccc1-2 (stereo not shown) [compound 1790] | > 15 µM
25 | CC(C)N1CCN(c2c(F)cc3c(=O)c(C(=O)NCCCN4CCOCC4)cn4c3c2Oc2ccc(Cl)cc2-4)CC1 [compound 1791] | > 15 µM
26 | CC(C)N1CCN(c2c(F)cc3c(=O)c(C(=O)NCCCN4CCOCC4)cn4c3c2Oc2cc(Cl)ccc2-4)CC1 [compound 1792] | > 15 µM
27 | N#Cc1ccc2c(c1)-n1cc(C(=O)NCCN3CCOCC3)c(=O)c3cc(F)c(N4CCC(N)C4)c(c31)O2 (stereo not shown) [compound 1793] | 5.3 µM
28 | O=C(NCCN1CCCC1)c1cn2c3c(c(NCC4CCCO4)c(F)cc3c1=O)Oc1cc(Cl)ccc1-2 (stereo not shown) [compound 1794] | > 15 µM
29 | CC(C)N1CCN(c2c(F)cc3c(=O)c(C(=O)NCCN4CCCC4)cn4c3c2Oc2ccc(C#N)cc2-4)CC1 [compound 1796] | > 15 µM
30 | CC(C)N1CCN(c2c(F)cc3c(=O)c(C(=O)NCCN4CCCC4)cn4c3c2Oc2cc(Cl)ccc2-4)CC1 [compound 1797] | 8 µM
31 | CC(C)N1CCN(c2c(F)cc3c(=O)c(C(=O)NCCN4CCCC4)cn4c3c2Oc2ccc(Cl)cc2-4)CC1 [compound 1798] | 6.6 µM
32 | O=C(NCCN1CCCC1)c1cn2c3c(c(NCC4CCCO4)c(F)cc3c1=O)Oc1ccc(Cl)cc1-2 (stereo not shown) [compound 1799] | > 15 µM
33 | CC(C)N1CCN(c2c(F)cc3c(=O)c(C(=O)NCCN4CCCC4)cn4c3c2Oc2cccnc2-4)CC1 [compound 1801] | 8.2 µM
34 | CCN(CC)CCCCNC(=O)c1cn2c3c(c(N4CCC(c5cnccn5)C4)c(F)cc3c1=O)Oc1ccc(Cl)cc1-2 (stereo not shown) [compound 1802] | 4 µM
35 | CCN(CC)CCCCNC(=O)c1cn2c3c(c(N4CCC(N)C4)c(F)cc3c1=O)Oc1ccc(Cl)cc1-2 (stereo not shown) [compound 1803] | 3 µM
36 | CC(C)N1CCN(c2c(F)cc3c(=O)c(C(=O)NCCN4CCOCC4)cn4c3c2Oc2ccc(Cl)cc2-4)CC1 [compound 1804] | > 15 µM
37 | CC(C)N1CCN(c2c(F)cc3c(=O)c(C(=O)NCCN4CCOCC4)cn4c3c2Oc2cc(Cl)ccc2-4)CC1 [compound 1805] | > 15 µM
38 | CCOC(=O)c1cn2c3c(c(N4CCN(C(C)=O)CC4)c(F)cc3c1=O)Oc1cc(Cl)ccc1-2 [compound 1806] | > 15 µM
39 | CC(=O)N1CCN(c2c(F)cc3c(=O)c(C(=O)NCCC4CCCN4C)cn4c3c2Oc2cc(Cl)ccc2-4)CC1 (stereo not shown) [compound 1807] | > 15 µM
40 | CN1CCCC1CCNC(=O)c1cn2c3c(c(NCCCNC(=O)OC(C)(C)C)c(F)cc3c1=O)Oc1cc(Cl)ccc1-2 (stereo not shown) [compound 1808] | > 15 µM

Row | Compound | IC50
41 | CN1CCCC1CCNC(=O)c1cn2c3c(c(NCCCN)c(F)cc3c1=O)Oc1cc(Cl)ccc1-2 (stereo not shown) [compound 1809] | > 15 µM
42 | CN1CCCC1CCNC(=O)c1cn2c3c(c(N4CCN(c5ncccn5)CC4)c(F)cc3c1=O)Oc1cc(Cl)ccc1-2 (stereo not shown) [compound 1810] | 7.8 µM
43 | CC(=O)N1CCN(c2c(F)cc3c(=O)c(C(=O)NCCN4CCCC4)cn4c3c2Oc2cc(Cl)ccc2-4)CC1 [compound 1812] | 3.2 µM
44 | O=C(NCCN1CCCC1)c1cn2c3c(c(N4CCN(c5ncccn5)CC4)c(F)cc3c1=O)Oc1cc(Cl)ccc1-2 [compound 1813] | 5.1 µM
45 | O=C(NCCN1CCCC1)c1cn2c3c(c(NCCN4CCOCC4)c(F)cc3c1=O)Oc1cc(Cl)ccc1-2 [compound 1814] | 7.2 µM
46 | O=C(NCCN1CCCC1)c1cn2c3c(c(N4CCOCC4)c(F)cc3c1=O)Oc1cc(Cl)ccc1-2 [compound 1815] | 10 µM
47 | CN1CCN(c2c(F)cc3c(=O)c(C(=O)NCCN4CCCC4)cn4c3c2Oc2cc(Cl)ccc2-4)CC1 [compound 1817] | 10 µM
48 | CN1CCCC1CCNC(=O)c1cn2c3c(c(N4CCN(C(=O)OC(C)(C)C)CC4)c(F)cc3c1=O)Oc1cc(Cl)ccc1-2 (stereo not shown) [compound 1819] | 10 µM
49 | O=C(NCCN1CCCC1)c1cn2c3c(c(N4CCN(C(=O)C(F)(F)F)CC4)c(F)cc3c1=O)Oc1cc(Cl)ccc1-2 [compound 1821] | 10 µM
50 | CCC(=O)N1CCN(c2c(F)cc3c(=O)c(C(=O)NCCN4CCCC4)cn4c3c2Oc2cc(Cl)ccc2-4)CC1 [compound 1822] | 10 µM
51 | CC(C)C(=O)N1CCN(c2c(F)cc3c(=O)c(C(=O)NCCN4CCCC4)cn4c3c2Oc2cc(Cl)ccc2-4)CC1 [compound 1823] | 10 µM
52 | O=C(NCCN1CCCC1)c1cn2c3c(c(N4CCN(C(=O)N5CCC[C@H]5C(=O)C(F)(F)F)CC4)c(F)cc3c1=O)Oc1cc(Cl)ccc1-2 [compound 1824] | 9.4 µM
53 | COCC(=O)N1CCN(c2c(F)cc3c(=O)c(C(=O)NCCN4CCCC4)cn4c3c2Oc2cc(Cl)ccc2-4)CC1 [compound 1825] | 10 µM
54 | O=C(NCCN1CCCC1)c1cn2c3c(c(N4CCN(Cc5ccco5)CC4)c(F)cc3c1=O)Oc1cc(Cl)ccc1-2 [compound 1829] | 10 µM
55 | Cn1cccc1CN1CCN(c2c(F)cc3c(=O)c(C(=O)NCCN4CCCC4)cn4c3c2Oc2cc(Cl)ccc2-4)CC1 [compound 1830] | 8.6 µM
56 | O=C(NCCN1CCCC1)c1cn2c3c(c(N4CCN(Cc5ccsc5)CC4)c(F)cc3c1=O)Oc1cc(Cl)ccc1-2 [compound 1831] | 9.8 µM
57 | O=C(NCCN1CCCC1)c1cn2c3c(c(N4CCN(Cc5ccoc5)CC4)c(F)cc3c1=O)Oc1cc(Cl)ccc1-2 [compound 1832] | 10 µM
58 | O=C(NCCN1CCCC1)c1cn2c3c(c(N4CCN(Cc5ccc[nH]5)CC4)c(F)cc3c1=O)Oc1cc(Cl)ccc1-2 [compound 1833] | 10 µM
